The source of these data is ChEMBL document CHEMBL5154707, “Synthesis and biological evaluation of novel hybrids of phenylsulfonyl furoxan and phenstatin derivatives as potent anti-tumor agents” (Eur J Med Chem, 2022).

One series concerns HCT-116. Put plainly: Antiproliferative activity against human HCT-116 cells after 48 hrs by MTT assay. The following applies: HCT-116, 48 h.
Series [1] relates to A2780. The series can be described thus: Induction of nitric oxide release in human A2780 cells measured by Griess reagent based assay. It counts as functional, cell-based.
The test system of a further series is A549. Put plainly: cells. The following applies: Homo sapiens, A549, 48 h.
The subject of another series is MDA-MB-231. The series can be described thus: cells. The following applies: Homo sapiens, MDA-MB-231, 48 h.
Series [2] concerns A2780. Put plainly: cells. The following applies: Homo sapiens, A2780, 48 h.
Description: Antiproliferative activity against human A2780 cells after 48 hrs by MTT assay
A further series has as its target Tubulin (Sus scrofa, UniProt P02554+P02550). Put plainly: Inhibition of pig brain tubulin polymerization.
Series [3] has as its target T1, Tubulin (Homo sapiens) (UniProt P68371+Q9H4B7+P0DPH7+P68366+Q13509+Q71U36+P04350+Q3ZCM7+P07437+P68363+Q9BQE3+Q6PEY2+Q13885+Q9BVA1+Q9BUF5). The series can be described thus: Inhibition of tubulin polymerization in A549 cells assessed as disruption of microtubule network at 10 to 20 nM measured by immunofluorescence assay. It counts as cell-based. The following applies: dose 10-20 nM.

Series [4] addresses T1, Tubulin (Homo sapiens). The series can be described thus: Inhibition of tubulin polymerization in A549 cells assessed as disruption of microtubule network at 20 nM measured by immunofluorescence assay. The series is classed as cell-based.
Series [5] can be described thus: Resistant factor, ratio of IC50 for antiproliferative activity against human A2780/PTX cells to IC50 for human A2780 cells. The series is classed as functional.
The nature of series [6]: Resistant factor, ratio of IC50 for antiproliferative activity against human A2780 cisR cells to IC50 for human A2780 cells. The series is classed as functional.
The nature of series [7]: Antiproliferative activity against human A2780/PTX cells after 48 hrs by MTT assay.
The nature of series [8]: Cytotoxicity against human HOSE cells after 48 hrs by MTT assay. It counts as toxicity, cell-based.
The next series concerns A2780cisR. The series can be described thus: Antiproliferative activity against human A2780 cisR cells after 48 hrs by MTT assay. The series is classed as functional, cell-based.

Active and inactive are the calls of the source. The calls are words filed in the database; no cut-off is given here. A value given as a limit tells only on which side of the number the result lay.

Description for MDA-MB-231: Antiproliferative activity against human MDA-MB-231 cells after 48 hrs by MTT assay

Take `O=S(=O)(c1ccccc1)c1no[n+]([O-])c1S(=O)(=O)c1ccccc1`: the IC50 in the series with HCT-116 is 2680 nM; in the series with A549, 235000 nM; with MDA-MB-231, 1870 nM. In the series on A2780 [1], the result was Active.

As to `COc1ccc(C(=O)c2ccc(F)cc2)cc1O`, the IC50 in the series on HCT-116, in the series with A2780 [2], with A549 and with MDA-MB-231 was over 20000 nM each time.

Regarding `COc1ccc(C(=O)c2ccc(Cl)cc2)cc1O`, the IC50 came to 2650 nM in the series on HCT-116, 3690 nM in the series on A2780 [2], 6640 nM with A549 and 4180 nM in the series with MDA-MB-231.

With `COc1ccc(C(=O)c2ccc(Br)cc2)cc1O`, the IC50 in the series on HCT-116 worked out at 3650 nM; with A2780 [2], 1160 nM; with A549, 224000 nM; with MDA-MB-231, 2110 nM.

On Tubulin, `COc1cc(OCCOc2no[n+]([O-])c2S(=O)(=O)c2ccccc2)cc(C(=O)c2ccc(Br)cc2)c1` came in with an IC50 of 1600 nM. Also, the inhibition entry on Tubulin (Homo sapiens) [3] and at Tubulin (Homo sapiens) [4] was “Active” each time.

Take `COc1ccc(C(=O)c2ccc3ccccc3c2)cc1O`: the IC50 with HCT-116 was found to be 124000 nM; in the series with A2780 [2], 170 nM; in the series on A549, 34000 nM; with MDA-MB-231, 120 nM.

As to `COc1ccc(/C=C\c2cc(OC)c(OC)c(OC)c2)cc1O` [COMBRETASTATIN A4], the IC50 was found to be 6 nM with A549 and 12 nM in the series on MDA-MB-231.

As to `COc1ccc(C(=O)c2cc(OC)c(OC)c(OC)c2)cc1O` [PHENSTATIN], the “Ratio IC50” value in series [5] came to 77.9; in series [6] it was 23.8. The IC50 with HCT-116 amounted to 170 nM; in the series with A2780 [2], 120 nM; in series [7], 9350 nM; in the series on A2780cisR it was 2850 nM; in the series with A549 it was 21000 nM; in the series on MDA-MB-231, 51 nM. Also, the result in the series on A2780 [1] was Active. This molecule yielded an IC50 at 48 h in series [8] of 160 nM.

Take `CC(=O)O[C@H]1C(=O)[C@@]2(C)[C@H]([C@H](OC(=O)c3ccccc3)[C@]3(O)C[C@H](OC(=O)[C@H](O)[C@@H](NC(=O)c4ccccc4)c4ccccc4)C(C)=C1C3(C)C)[C@]1(OC(C)=O)CO[C@@H]1C[C@@H]2O` [PACLITAXEL]: the IC50 at 48 h in series [8] was 18 nM.
